One experiment relates to caspase 3. The experiment in a line: Caspase 3 activity assay, Jurkat lysates. The format is cell-based, human. The conditions noted are these: 16 and 24 h exposure. As to the method:
FIG. 14: Induction of Caspase 3 by compound 27. Jurkat cells were treated with indicated concentrations of the compound for 16 and 24 h and harvested in lysis buffer. Cellular lysates were incubated with Ac-DEVD-pNA as described in the “Materials and Methods” for 2 h at 37° C. Absorbance was recorded at 405 nm.
Caspase 3 activity assay: To evaluate caspase 3 activity, cell lysates were prepared after their respective treatments with the compounds. 200 μg of the cell lysates were incubated with 50 μM caspase 3 substrate […] in 100 μl reaction buffer (1% NP-40, […] tris-HCl, pH7.5, 137 mM NaCl, and 10% glycerol) and incubated for 2 h at 37° C. The release of chromophore pNA was monitored spectrophotometrically at 405 nm.

The next experiment concerns p65. In words: Nuclear translocation of p65 by flow cytometry, Jurkat. The format is cell-based, human. As to the method:
FIG. 5: Effect of CAMVE on TNF or LPS induced nuclear translocation of p65. A. HeLa cells either untreated or pretreated with 15 μM CAMVE for 3 h at 37° C. were stimulated with 0.1 nM TNF and immunocytochemical analysis were performed as described in “Materials and Methods”. B. Jurkat (5×10^5 cells/ml) cells were pretreated with indicated concentrations of CAMVE for 3 h and then stimulated with 0.1 nM of TNF for 30 min or 100 ng/ml of SA-LPS (serum activated LPS) for 15 min. After these treatments, cells were washed twice with PBS and nuclei were isolated by incubating the cells with […] Pipes-Triton buffer for 30 min at 4° C. Nuclei were stained for p65 and analyzed using FACS. (i). Representative histogram overlay showing TNF or LPS stimulated (1), basal (2), CAMVE stimulated (3), p65 staining in the nucleus. (ii). Ordinates gives the Isotype-corrected MFI for various treatments.
The assay was performed as described previously (Blaecke, A., Yves, D., Herbault, N., Jeannin, P., Bonnefoy, J. V., Beck, A., Aubry, J. P. (2002) Cytometry 48, 71-79). Briefly after stimulation, cells were washed twice with PBS. Nucleus was prepared by incubating the cells with 200 ul Pipes-Triton buffer for 30 min at 4° C. […] After washing, the nuclei were incubated with secondary FITC conjugated goat anti-mouse antibody (Sigma) for additional 30 mins at 4° C. and analysed using FACS. […]
A general note: Flow cytometry measures light scatter and fluorescence of single cells or particles in a stream.

In the case of `COc1cc([C@@H]2Oc3c(OC)cc(/C=C/C(=O)O)cc3[C@H]2C(=O)O)ccc1O` [compound 27, 5-[(E)-2-carboxyvinyl]-2β-(4-hydroxy-3-methoxyphenyl)-7-methoxy-2,3-dihydro-1-benzofuran-3α-carboxylic acid], the “caspase 3 activity (DVED-pNA cleavage)” value in the experiment on caspase 3 is “dose dependent increase in DVED-pNA cleavage”.

With `COC(=O)c1ccc(OC(=O)/C=C/c2ccc(O)c(O)c2)c(OC)c1` [compound 1, Methyl 4-{[(2E)-3-(3,4-dihydroxyphenyl)prop-2-enoyl]oxy}-3-methoxybenzoate], in the experiment with p65 (Jurkat nuclei, pretreated 3 h, 0.1 nM TNF or 100 ng/ml SA-LPS), the “TNF or LPS mediated p65 translocation” value was “blocked with CAMVE pretreatments”. Also, the “basal nuclear p65 staining” value in the experiment on p65 (Jurkat, CAMVE alone) is “not altered by incubation with CAMVE alone”.
